The source of these data is patent publication US12600725B2 (Memorial Sloan-Kettering Cancer Center, priority 2013, dated 2026).

Each structure is given as a SMILES string.

One test deals with Hsp90α (Homo sapiens, UniProt P07900). Nature of the test: biochemical. As to conditions: FP competition, 6 nM Cy3B-GM, 10 nM protein, 4° C. for 24 h.
The test system of another test is MDA-MB-468 cells. Nature of the test: Growth inhibition assay (Alamar blue). Format: cell-based. As to conditions: Homo sapiens. The method, then:
We evaluated the antiproliferative effects of inhibitors using the dye Alamar blue. This reagent offers a rapid objective measure of cell viability in cell culture, and it uses the indicator dye resazurin to measure the metabolic capacity of cells, an indicator of cell viability. Briefly, MDA-MB-468 cells were plated on Costar 96-well plates at 1500 cells/well. Cells were allowed to incubate for 24 h at 37° C. before drug treatment. Drugs were added in triplicate at the indicated concentrations, and the plate was incubated for 72 h. Alamar Blue (440 μM) was added, and the plate read 6 h later using Softmax Pro 6 software (Fluorescence intensity mode, excitation 530 nm, emission 580 nm, with 560 nm dichroic mirror). Results were analyzed using GraphPad Prism 5. The percentage cell growth inhibition was calculated by comparing fluorescence readings obtained from treated versus control cells, accounting for initial cell population (time zero).
(The colour change of resazurin is a common sign of viable cells or microbes.)

For the next test, the target named is Grp94 (Canis lupus familiaris, UniProt P41148). The note with it: read-out: Grp94; FP competition, 6 nM Cy3B-GM, 10 nM protein, 4° C. for 24 h.
In test [1] the target is T1, Trap-1 (Homo sapiens, UniProt Q12931).
T1 sequence (Q12931 60-704): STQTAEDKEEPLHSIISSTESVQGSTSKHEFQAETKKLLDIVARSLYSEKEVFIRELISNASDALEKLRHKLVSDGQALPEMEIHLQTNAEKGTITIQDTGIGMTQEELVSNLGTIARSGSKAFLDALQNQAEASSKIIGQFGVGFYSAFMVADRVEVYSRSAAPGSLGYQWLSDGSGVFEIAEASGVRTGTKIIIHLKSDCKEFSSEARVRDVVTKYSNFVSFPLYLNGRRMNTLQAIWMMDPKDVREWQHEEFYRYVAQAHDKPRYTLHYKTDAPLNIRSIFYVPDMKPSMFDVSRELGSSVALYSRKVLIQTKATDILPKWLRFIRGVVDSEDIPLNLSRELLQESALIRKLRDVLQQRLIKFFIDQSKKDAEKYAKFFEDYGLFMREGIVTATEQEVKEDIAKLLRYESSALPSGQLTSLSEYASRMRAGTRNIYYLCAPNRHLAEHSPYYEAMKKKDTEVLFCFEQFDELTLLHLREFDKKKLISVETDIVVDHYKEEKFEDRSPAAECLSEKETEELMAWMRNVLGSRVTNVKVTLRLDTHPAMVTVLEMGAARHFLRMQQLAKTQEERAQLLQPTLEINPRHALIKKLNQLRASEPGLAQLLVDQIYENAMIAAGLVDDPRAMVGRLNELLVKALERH
The note with it: relative to Hsp90.

For the next test, the target named is Hsp90β (Homo sapiens, UniProt P08238).
Test [2] concerns the target T1, Trap-1. Description: biochemical.

Sequence of Grp94 (P41148 with tags, fused parts or gaps DELINS287-327GGGG): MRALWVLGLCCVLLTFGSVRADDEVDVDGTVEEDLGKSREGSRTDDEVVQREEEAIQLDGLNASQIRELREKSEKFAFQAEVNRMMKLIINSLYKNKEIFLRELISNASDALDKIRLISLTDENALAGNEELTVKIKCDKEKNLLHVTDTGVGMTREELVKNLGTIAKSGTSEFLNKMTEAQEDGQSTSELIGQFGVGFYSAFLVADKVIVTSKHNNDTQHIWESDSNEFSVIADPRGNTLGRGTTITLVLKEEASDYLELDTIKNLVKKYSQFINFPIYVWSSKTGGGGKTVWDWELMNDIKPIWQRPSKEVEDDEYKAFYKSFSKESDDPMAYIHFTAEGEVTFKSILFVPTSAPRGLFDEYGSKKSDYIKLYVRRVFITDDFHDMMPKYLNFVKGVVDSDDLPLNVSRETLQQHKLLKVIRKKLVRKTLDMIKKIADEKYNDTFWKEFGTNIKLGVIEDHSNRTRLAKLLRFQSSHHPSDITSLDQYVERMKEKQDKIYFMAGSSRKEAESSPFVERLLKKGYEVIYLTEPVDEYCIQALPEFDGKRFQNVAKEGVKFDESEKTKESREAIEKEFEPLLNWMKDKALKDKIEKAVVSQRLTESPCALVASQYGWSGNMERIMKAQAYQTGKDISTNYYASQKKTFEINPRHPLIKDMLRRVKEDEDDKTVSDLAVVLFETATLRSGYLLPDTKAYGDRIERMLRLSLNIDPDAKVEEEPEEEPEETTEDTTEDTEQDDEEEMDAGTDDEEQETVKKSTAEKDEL
Sequence of Hsp90β (P08238 whole entry): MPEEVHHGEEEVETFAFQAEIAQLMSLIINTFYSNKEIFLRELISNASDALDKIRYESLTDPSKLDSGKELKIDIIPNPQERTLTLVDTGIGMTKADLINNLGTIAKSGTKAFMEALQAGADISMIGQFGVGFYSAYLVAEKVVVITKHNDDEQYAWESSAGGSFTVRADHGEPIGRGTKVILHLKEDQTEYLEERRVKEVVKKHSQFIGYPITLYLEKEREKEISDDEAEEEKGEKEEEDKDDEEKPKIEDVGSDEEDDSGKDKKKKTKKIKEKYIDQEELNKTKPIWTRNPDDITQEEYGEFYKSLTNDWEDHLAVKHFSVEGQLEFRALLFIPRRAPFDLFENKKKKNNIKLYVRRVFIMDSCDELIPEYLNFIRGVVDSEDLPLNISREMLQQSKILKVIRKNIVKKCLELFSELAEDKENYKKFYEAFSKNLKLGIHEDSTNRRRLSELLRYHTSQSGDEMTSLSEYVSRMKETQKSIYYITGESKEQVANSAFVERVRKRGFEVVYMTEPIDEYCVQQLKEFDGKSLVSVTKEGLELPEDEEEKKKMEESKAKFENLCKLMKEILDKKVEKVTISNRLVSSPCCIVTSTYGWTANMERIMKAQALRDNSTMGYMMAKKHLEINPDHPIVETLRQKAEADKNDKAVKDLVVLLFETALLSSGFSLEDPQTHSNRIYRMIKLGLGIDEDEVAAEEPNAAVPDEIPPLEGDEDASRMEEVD

Take `C[C@H](NCCCn1c(Sc2cc(Cl)cc(Cl)c2)nc2c(N)ncnc21)C1CC1` [SO-III-127B, (S)-9-(3-((1-cyclopropylethyl)amino)propyl)-8-((3,5-dichlorophenyl)thio)-9H-purin-6-amine]: the IC50 at Hsp90α was determined as 40400 nM; in the test on MDA-MB-468 cells, 830 nM; on Grp94 it was 345 nM.

As to `C=C(C)c1cc(Cl)cc(Sc2nc3c(N)ncnc3n2CCCNC(C)C)c1` [HJP-VI-12, 8-((3-chloro-5-(prop-1-en-2-yl)phenyl)thio)-9-(3-(isopropylamino)propyl)-9H-purin-6-amine], the IC50 on Hsp90α was found to be 20000 nM; in the test on MDA-MB-468 cells it was 63 nM; on Grp94 it was 210 nM.

In the case of `CC(C)NCCCn1c(Sc2cc(Cl)cc(-c3ccc[nH]3)c2)nc2c(N)ncnc21` [HJP-VI-28, 8-((3-chloro-5-(1H-pyrrol-2-yl)phenyl)thio)-9-(3-(isopropylamino)propyl)-9H-purin-6-amine], the IC50 in the test on MDA-MB-468 cells came to 286 nM; at Grp94 it was 220 nM.

As for `CC(C)(C)CNCCCn1c(Sc2cc(Cl)cc(Cl)c2)nc2c(N)nc(F)nc21` [HJP-VI-85, 8-((3,5-dichlorophenyl)thio)-2-fluoro-9-(3-(neopentylamino)propyl)-9H-purin-6-amine], the IC50 on Hsp90α is over 50000 nM; in the test on MDA-MB-468 cells, 164 nM; at Grp94 it was 186 nM.

Consider `CC(C)NCCCn1c(Sc2cc(Cl)cc(-c3ccn[nH]3)c2)nc2c(N)ncnc21` [HJP-VI-29, 8-((3-chloro-5-(1H-pyrazol-5-yl)phenyl)thio)-9-(3-(isopropylamino)propyl)-9H-purin-6-amine], for which the IC50 came out at 25900 nM at Hsp90α, 516 nM with MDA-MB-468 cells and 1200 nM on Grp94.

With `C/C=C/c1cc(Cl)cc(Sc2nc3c(N)ncnc3n2CCCNC(C)C)c1` [HJP-VI-63, (E)-8-((3-chloro-5-(prop-1-en-1-yl)phenyl)thio)-9-(3-(isopropylamino)propyl)-9H-purin-6-amine], the values for the IC50 on Hsp90α, in the test with MDA-MB-468 cells and at Grp94 were over 50000 nM, 226 nM and 340 nM, respectively.

`CC(C)NCCCn1c(Sc2cc(Cl)cc(I)c2)nc2c(N)ncnc21` [HJP-V-149, 8-((3-chloro-5-iodophenyl)thio)-9-(3-(isopropylamino)propyl)-9H-purin-6-amine]: the IC50 at Hsp90α came out at 43200 nM; in the test with MDA-MB-468 cells it was 125 nM; on Grp94 it was 240 nM.

In the case of `CC(C)NCCCn1c(Sc2cc(Cl)cc(-c3ccoc3)c2)nc2c(N)ncnc21` [HJP-VI-39, 8-((3-chloro-5-(furan-3-yl)phenyl)thio)-9-(3-(isopropylamino)propyl)-9H-purin-6-amine], the IC50 on Hsp90α came out at 21300 nM; with MDA-MB-468 cells, 166 nM; on Grp94, 280 nM.

As for `C[C@@H](NCCCn1c(Sc2cc(Cl)cc(Cl)c2)nc2c(N)ncnc21)C1CC1` [SO-III-128B, (R)-9-(3-((1-cyclopropylethyl)amino)propyl)-8-((3,5-dichlorophenyl)thio)-9H-purin-6-amine], the IC50 turned out to be 35600 nM on Hsp90α, 840 nM in the test with MDA-MB-468 cells and 276 nM on Grp94.

For the compound `CC(C)CNCCCn1c(Sc2cc(Cl)cc(I)c2)nc2c(N)ncnc21` [HJP-VI-4, 8-((3-chloro-5-iodophenyl)thio)-9-(3-(isobutylamino)propyl)-9H-purin-6-amine], the results for the IC50 on Hsp90α, in the test with MDA-MB-468 cells and on Grp94 were 41800 nM, 212 nM and 290 nM, respectively.

For the compound `CC(C)NCCCn1c(Sc2cc(Cl)cc(-c3ncco3)c2)nc2c(N)ncnc21` [HJP-VI-49, 8-((3-chloro-5-(oxazol-2-yl)phenyl)thio)-9-(3-(isopropylamino)propyl)-9H-purin-6-amine], the IC50 on Hsp90α worked out at 29600 nM; with MDA-MB-468 cells it was 3120 nM; on Grp94 it was 1300 nM.

As for `CC(C)NCCCn1c(Sc2ccc(Cl)cc2-c2ccn[nH]2)nc2c(N)ncnc21` [HJP-VI-43, 8-((4-chloro-2-(1H-pyrazol-5-yl)phenyl)thio)-9-(3-(isopropylamino)propyl)-9H-purin-6-amine], the IC50 on Hsp90α was 1500 nM; with MDA-MB-468 cells, 6580 nM; on Grp94, 450 nM.

Turning to `CC(C)NCCCn1c(Sc2cc(Cl)cc(-c3cc[nH]c3)c2)nc2c(N)ncnc21` [HJP-VI-44, 8-((3-chloro-5-(1H-pyrrol-3-yl)phenyl)thio)-9-(3-(isopropylamino)propyl)-9H-purin-6-amine], the IC50 at Hsp90α worked out at 12300 nM; in the test on MDA-MB-468 cells, 917 nM; on Grp94, 830 nM.

For `C#Cc1cc(Cl)cc(Sc2nc3c(N)ncnc3n2CCCNC(C)C)c1` [HJP-VI-18, 8-((3-chloro-5-ethynylphenyl)thio)-9-(3-(isopropylamino)propyl)-9H-purin-6-amine], the values for the IC50 at Hsp90α, with MDA-MB-468 cells and at Grp94 were 152000 nM, 122 nM and 900 nM, respectively.

`CC(C)NCCCn1c(Sc2ccc(Cl)cc2I)nc2c(N)ncnc21` [HJP-VI-36, 8-((4-chloro-2-iodophenyl)thio)-9-(3-(isopropylamino)propyl)-9H-purin-6-amine]: the IC50 at Hsp90α turned out to be 3400 nM; in the test on MDA-MB-468 cells it was 5850 nM; at Grp94, 210 nM.

For `CCNC(=O)c1noc(-c2cc(C(C)C)c(O)cc2O)c1-c1ccc(CN2CCOCC2)cc1` [NVP-AUY922], at Trap-1 [1], the “decrease in binding efficacy for Trap-1” value worked out at 2 fold.

Regarding `CC(C)(C)NCCCn1c(Sc2cc(Cl)cc(Cl)c2)nc2c(N)nc(F)nc21` [HJP-VI-86, 9-(3-(tert-butylamino)propyl)-8-((3,5-dichlorophenyl)thio)-2-fluoro-9H-purin-6-amine], the IC50 at Hsp90α was 20900 nM; in the test on MDA-MB-468 cells it was 53 nM; on Grp94, 156 nM.

On to `CC(C)(C)CNCCCn1c(Sc2cc(Cl)cc(I)c2)nc2c(N)ncnc21` [HJP-VI-5, 8-((3-chloro-5-iodophenyl)thio)-9-(3-(neopentylamino)propyl)-9H-purin-6-amine], for which the IC50 on Hsp90α is over 25000 nM; in the test on MDA-MB-468 cells it was 562 nM; at Grp94, 490 nM.

For the compound `C=Cc1cc(Cl)cc(Sc2nc3c(N)ncnc3n2CCCNC(C)C)c1` [HJP-VI-31, 8-((3-chloro-5-vinylphenyl)thio)-9-(3-(isopropylamino)propyl)-9H-purin-6-amine], the IC50 at Hsp90α is 48900 nM; with MDA-MB-468 cells it was 129 nM; on Grp94 it was 630 nM.

Regarding `CC(C)(C)NCCCn1c(Sc2cc(Cl)cc(I)c2)nc2c(N)ncnc21` [HJP-VI-6, 9-(3-(tert-butylamino)propyl)-8-((3-chloro-5-iodophenyl)thio)-9H-purin-6-amine], the IC50 on Hsp90α is 27800 nM; in the test on MDA-MB-468 cells, 314 nM; at Grp94 it was 540 nM.

`C/C=C\c1cc(Cl)cc(Sc2nc3c(N)ncnc3n2CCCNC(C)C)c1` [HJP-VI-78, (Z)-8-((3-chloro-5-(prop-1-en-1-yl)phenyl)thio)-9-(3-(isopropylamino)propyl)-9H-purin-6-amine]: the IC50 on Hsp90α was 18600 nM; with MDA-MB-468 cells, 580 nM; on Grp94 it was 214 nM.

Turning to `C=C(c1cc(Cl)cc(Sc2nc3c(N)ncnc3n2CCCNC(C)C)c1)C(F)(F)F` [HJP-VI-70, 8-((3-chloro-5-(3,3,3-trifluoroprop-1-en-2-yl)phenyl)thio)-9-(3-(isopropylamino)propyl)-9H-purin-6-amine], the figures for the IC50 on Hsp90α, in the test with MDA-MB-468 cells and on Grp94 were 13800 nM, 2160 nM and 153 nM, respectively.

As to `C#CCCCn1cnc(N)c2nc(Sc3ccc(OC)cc3OC)nc1-2` [PU-H44], the IC50 against Hsp90β is over 100000 nM; on Hsp90α, over 100000 nM; at Trap-1 [2], over 100000 nM; on Grp94 it was 46800 nM.

Turning to `C#CCCCn1c(Sc2ccc(Cl)cc2C(F)(F)F)nc2c(N)ncnc21` [PDP-117A], the IC50 was over 100000 nM at Hsp90β, over 100000 nM at Hsp90α, 34400 nM on Trap-1 [2] and 1580 nM at Grp94.

Turning to `Nc1ncnc2c1nc(Sc1cc(Cl)cc(Cl)c1)n2CC1CCCCC1` [PDP-110A, 9-(Cyclohexylmethyl)-8-((3,5-dichlorophenyl)thio)-9H-purin-6-amine], the IC50 against Hsp90β is over 100000 nM; at Hsp90α, over 100000 nM; on Trap-1 [2], over 100000 nM; at Grp94, 4340 ± 750 nM.
